Data as given in EP4389746A2, “P2X3 RECEPTOR ANTAGONISTS” (Recordati Industria Chimica E Farmaceutica SPA, priority 2022, dated 2024).

Legend:
[1] = system: C57BL/6J mice; assay: Scratching model: inhibition of ATP induced pruritus in mouse; format: in vivo; details: dose inhibiting the 35% of number of bouts, intraperitoneally 30 min before α,β-meATP 200 µg/50 µL intradermal, bouts counted for 30 minutes
Description: C57BL/6J mice, Hartley Guinea pigs and Sprague-Dawley Rats from Charles River Italy were used in the experiments. Animals were housed with free access to food and water and maintained on a forced 12 hr light-dark cycle at 22-24°C for at least one week before the experiments were carried out. The animals were handled according to internationally accepted principles for care of laboratory animals (Directive 2010/63/EU of the European Parliament and of the Council of 22 September 2010).
"Scratchng model" - Inhibition of ATP induced pruritus in mouse
Mice were shaved at the rostral back the day before injection. The day of the experiment, an intradermal injection of the irritant agent α,β-meATP 200 µg/50 µL (Sigma, Italy) into the skin was performed. The hind limb scratching behavior directed toward the injection site, was recorded. One bout was defined as the lifting of the hindlimb toward the injection site and then placing the limb back on the floor. The number of bouts were counted for a period of 30 minutes. The Example 22 compound investigated was injected intraperitoneally 30 min before the administration of the irritant agent. (Fig. 2)
In the scratching model the results are presented as mean ± SEM of the values. Statistical analysis was performed using one-way ANOVA and Dunnet's test for multiple comparisons. The ED35 of the tested compounds was determined by linear regression analysis of bouts (Graphpad v5).

[2] = molecular target: T1, human P2X2/3 receptor (Homo sapiens, UniProt P56373+Q9UBL9); assay: Calcium fluorescence measurement: human P2X2/3 receptor activity inhibition (CHO-K1 cells, Fluo-8 NoWash, […]); format: cell-based; details: for IC50: CHO-K1 cells expressing human P2RX2/X3 channel, 10µM α,β-Met-ATP, read-out: h-P2X2/3 IC50; for Selectivity: ratio of IC50 of P2X2/3/ P2X3 receptors
T1 construct: expressed in transfected cells; host or cells: CHO-K1
T1 sequence (P56373 1-397): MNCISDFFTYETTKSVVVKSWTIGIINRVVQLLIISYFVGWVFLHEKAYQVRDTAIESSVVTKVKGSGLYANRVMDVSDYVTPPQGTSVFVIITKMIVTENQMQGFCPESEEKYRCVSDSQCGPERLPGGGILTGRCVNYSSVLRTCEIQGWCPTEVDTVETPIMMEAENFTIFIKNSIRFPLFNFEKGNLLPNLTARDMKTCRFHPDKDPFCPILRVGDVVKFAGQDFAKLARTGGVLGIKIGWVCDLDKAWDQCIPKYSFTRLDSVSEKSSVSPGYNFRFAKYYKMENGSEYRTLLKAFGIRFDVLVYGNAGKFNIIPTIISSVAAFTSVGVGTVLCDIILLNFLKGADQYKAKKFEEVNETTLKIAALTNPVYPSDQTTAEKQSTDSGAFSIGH
T1 sequence (Q9UBL9 1-471): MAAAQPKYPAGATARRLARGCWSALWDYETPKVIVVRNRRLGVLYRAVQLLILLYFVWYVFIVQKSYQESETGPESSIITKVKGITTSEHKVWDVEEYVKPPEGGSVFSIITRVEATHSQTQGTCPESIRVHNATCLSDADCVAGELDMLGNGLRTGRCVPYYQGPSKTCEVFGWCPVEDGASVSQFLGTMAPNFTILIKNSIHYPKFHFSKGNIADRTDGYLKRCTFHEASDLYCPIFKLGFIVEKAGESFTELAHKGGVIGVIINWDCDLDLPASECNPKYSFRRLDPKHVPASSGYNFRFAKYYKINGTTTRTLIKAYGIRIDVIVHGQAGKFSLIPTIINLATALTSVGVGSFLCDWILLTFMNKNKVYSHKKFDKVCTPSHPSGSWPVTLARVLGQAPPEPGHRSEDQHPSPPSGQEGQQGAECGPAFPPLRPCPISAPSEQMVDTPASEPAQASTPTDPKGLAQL
Description: Determination of human P2X2/3 receptor activity inhibition
The assay for the human P2RX2/X3 has been evaluated by the screening instrumentation using the […] as reader and the FLUO8-NoWash dye as fluorescent readout for calcium detection.
CHO-K1 cells recombinantly expressing the human P2RX2/X3 channel are maintained in DMEM F-12 (1:1) mixture (LONZA cat. n°: BE04-687F/U1) supplemented with 5 mL of 100 mM Sodium Pyruvate (LONZA cat. n° BE13-115E), 25 mL of 7.5% Sodium Bicarbonate (LONZA cat. n° BE17-613E), 6.5 mL of 1M Hepes (LONZA cat. n° BE17-737E), 5 mL of 100X Penicillin/Streptomycin mixture (LONZA cat. n° DE17-602E) and 50 mL of Fetal Bovine Serum (Sigma cat. n° F7524), 5 µg/mL Puromycin dihydrochloride (Sigma cat. n° P9620) and 1 mg/ml G418 disulfate salt (Sigma cat. n° G8168).
Cells were seeded into black-walled clear bottom 384 Multiwell plates at a density of 10.000 cells/well in complete medium. After 24 h the culture medium was replaced with 20 µL/well of Fluo-8 NoWash calcium sensitive dye (AAT Bioquest cat. n° 36316) diluted in Tyrode's buffer (Standard Tyrode's buffer: in house solution, 130 mM NaCl, 5 mM KCl, 2 mM CaCl2, 5 mM NaHCO3, 1 mM MgCl2, 20 mM HEPES, pH 7.4).
The plates were incubated for 1 hours at 37°C and injected with 10 µL/well of test compounds at 3X concentration in Tyrode's buffer with the […]. After 5 minutes a second injection of 15 µL/well of 10µM α,β-Met-ATP in Tyrode's buffer (α,β-Met-ATP: from Tocris cat. n° 3209) was performed and the signal of the emitted fluorescence was recorded by […] (Molecular Devices).
The selectivity is expressed as the ratio of IC50 of P2X2/3/ P2X3 receptors. Table 8: Human P2X3 and h-P2X2/3 receptor antagonist activity for selected compounds of the invention.

[3] = molecular target: T2, human P2X3 receptor (Homo sapiens, UniProt P56373); assay: Calcium luminescence measurement: human P2X3 receptor activity inhibition (CHO-K1 cells, photoprotein readout, FLEXSTATION); format: cell-based; details: CHO-K1 cells co-expressing human P2X3 and Ca2+ sensitive photoprotein; agonist α,β-Met-ATP; read-out: h-P2X3 IC50
T2 construct: expressed in transfected cells; host or cells: CHO-K1
T2 sequence (P56373 1-397): T1 sequence (P56373 1-397)
Description: Determination of human P2X3 receptor activity inhibition
The assay for the human purinergic P2RX3 receptor has been adapted to the internal screening instrumentation using the FLEXSTATION as reader and a photoprotein as luminescent readout. The assay consists of CHO-K1 cells recombinantly co-expressing the human P2rx3 receptor and a Ca^2+ sensitive photoprotein. Cells are maintained in DMEM F-12 (1:1) mixture (LONZA cat. n° BE04-687F/U1) supplemented with 9 mL of 100 mM Sodium Pyruvate (LONZA cat. n° BE13-115E), 29 mL of 7.5% Sodium Bicarbonate (LONZA cat. n° BE17-613E), 5.5 mL of 1 M Hepes (LONZA cat. n° BE17-737E), 5 mL of 100X Penicillin/Streptomycin mixture (LONZA cat. n° DE17-602E) and 50 mL of Fetal Bovine Serum (Sigma cat. n° F7524), 1 mg/mL G418 disulfate salt (Sigma cat. n° G8168) and 5 µg/ml Puromycin dihydrochloride (Sigma cat. n° P9620). Standard propagation conditions consist of seeding in a P75 flask twice a week, recovering about 20×10^6 cells, corresponding to about 80% confluency. Cells were seeded into black-walled clear bottom 96 well plates at a density of 40000 cells/well in a complete medium. After 24 h the culture medium was replaced with 200 µL/well of coelenterazine in Tyrode's buffer (Standard Tyrode's buffer: in house solution, 130 mM NaCl, 5 mM KCl, 2 mM CaCl2, 5 mM NaHCO3, 1 mM MgCl2, 20 mM HEPES, pH 7.4). Coelenterazine was purchased from BIOSYNTH (cat. n° C-7001). 10 mM stock solution was prepared in DMSO and glutathione and stored at -20° C. The plates were incubated for 4 hours at 37°C, and injected with 10 µL/well of test compounds at 25X concentration in Tyrode's buffer. After 4 minutes a second injection of 50 µL/well of 5X α,β-Met-ATP in Tyrode's buffer (α,β-Met-ATP: from Tocris (cat. n° 3209), was dissolved at 100 mM in water and stored in aliquots at -20°C) was performed and the signal of the emitted luminescence was recorded by FLEXSTATION III (Molecular Devices). […]
The inhibition curves of the tested compounds at cloned P2X3 receptor were determined by nonlinear regression analysis using software Prism 5.0 (Graphpad, San Diego, CA). The IC50 values and pseudo-Hill slope coefficients were estimated by the program.

IC50 [2] [µM] | Selectivity [2] | IC50 [3] [µM] | Structure (SMILES) | ED35 [1] [mg/kg]
> 30 | >1800 | 0.0166 | CC(C)C1C(=O)N=C2c3nnc(N4CCOCC4)cc3N(Cc3ccc(Cl)cc3)C(=O)N21 (stereo not drawn) [Example 28, 5-[(4-Chlorophenyl)methyl]-3-(morpholin-4-yl)-8-(propan-2-yl)imidazo[1',2':1,6]pyrimido[5,4-c]pyridazine-6,9(5H,8H)-dione] | 22.54
> 30 | >697 | 0.043 | CC(=O)N1CCN(c2cnc3c(c2)n(Cc2ccc(Cl)cc2)c(=O)n2c(C(C)(C)C)nnc32)CC1 [Example 34, 8-(4-Acetylpiperazin-1-yl)-3-tert-butyl-6-[(4-chlorophenyl)methyl]pyrido[2,3-e][1,2,4]triazolo[4,3-c]pyrimidin-5(6H)-one] | 12.42
> 30 | >90 | 0.33 | COc1ccc(Cn2c(=O)n3c(C(C)(C)C)nnc3c3ncc(N4CCNCC4)cc32)cc1 [Example 35, 3-tert-Butyl-6-[(4-methoxyphenyl)methyl] -8-(piperazin-1-yl)pyrido[2,3-e][1,2,4]triazolo[4,3-c]pyrimidin-5(6H)-one] | 
> 30 | >119 | 0.136 | COc1ccc(Cn2c(=O)n3c(C(C)(C)C)nnc3c3ncc(N4CCN(C(C)=O)CC4)cc32)cc1 [Example 36, 8-(4-Acetylpiperazin-1-yl)-3-tert-butyl-6-[(4-methoxyphenyl)methyl]pyrido[2,3-e][1,2,4]triazolo[4,3-c]pyrimidin-5(6H)-one] | 
19.9 | >392 | 0.0506 | COc1ccc(Cn2c(=O)n3c(C(C)(C)C)nnc3c3ncc(N4CCCCC4)cc32)cc1 [Example 38, 3-tert-Butyl-6-[(4-methoxyphenyl)methyl]-8-(piperidin-1-yl)pyrido[2,3-e][1,2,4]triazolo[4,3-c]pyrimidin-5(6H)-one] | 
> 30 | >444 | 0.0676 | CC(C)(C)c1nnc2c3ncc(N4CC[C@@H](O)C4)cc3n(Cc3ccc(Cl)cc3)c(=O)n12 [Example 43, 3-tert-Butyl-6-[(4-chlorophenyl)methyl]-8-[(3R)-3-hydroxypyrrolidin-1-yl]pyrido[2,3-e][1,2,4]triazolo[4,3-c]pyrimidin-5(6H)-one] | 
3.9 | 582 | 0.00673 | CC(C)(C)c1nnc2c3nnc(N4CCOCC4)cc3n(Cc3ccc(Cl)cc3)c(=O)n12 [Example 44, 3-tert-Butyl-6-[(4-chlorophenyl)methyl]-8-(morpholin-4-yl)[1,2,4]triazolo[4',3': 1,6]pyrimido[5,4-c]pyridazin-5(6H)-one] | 9.06
> 30 | >1000 | 0.0249 | COC(C)(C)c1nnc2c3nnc(N4CCOCC4)cc3n(Cc3ccc(Cl)cc3)c(=O)n12 [Example 48, 6-[(4-Chlorophenyl)methyl]-3-(2-methoxypropan-2-yl)-8-(morpholin-4-yl)[1,2,4]triazolo[4',3': 1,6]pyrimido[5,4-c]pyridazin-5(6H)-one] | 
> 30 | >1500 | 0.0195 | CC(C)(C)Cc1nnc2c3nnc(N4CCOCC4)cc3n(Cc3ccc(Cl)cc3)c(=O)n12 [Example 49, 6-[(4-Chlorophenyl)methyl]-3-(2,2-dimethylpropyl)-8-(morpholin-4-yl)[1,2,4]triazolo[4',3':1,6]pyrimido[5,4-c]pyridazin-5(6H)-one] | 
> 30 | >304 | 0.0986 | CN(C)c1nnc2c3nnc(N4CCOCC4)cc3n(Cc3ccc(Cl)cc3)c(=O)n12 [Example 50, 6-[(4-Chlorophenyl)methyl] -3 - (dimethylamino)-8-(morpholin-4-yl)[1,2,4]triazolo[4',3': 1,6]pyrimido[5,4-c]pyridazin-5(6H)-one] | 
> 30 | >1200 | 0.025 | CC(C)(C)c1nnc2c3nnc(N4CCC(O)CC4)cc3n(Cc3ccc(Cl)cc3)c(=O)n12 [Example 55, 3-tert-Butyl-6-[(4-chlorophenyl)methyl]-8-(4-hydroxypiperidin-1-yl)[1,2,4]triazolo[4',3': 1,6]pyrimido[5,4-c]pyridazin-5(6H)-one] | 
